Laboratory results reported in patent publication US20230212571A1, “COMPOSITIONS AND METHODS FOR DELIVERING POLYNUCLEOTIDES” (NeOnc Technologies, Inc., priority 2020, published 2023).

Columns and labels:
AVM-BEC = experiment: Proteome Profiler Human Angiogenesis Array of AVM-BEC lysates; assay type: cell-based
Text: Human surgical specimens were obtained following written informed consent from patients in accordance with Declaration of Helsinki guidelines and the Institutional Review Board (HS-04B053), at Keck School of Medicine, USC. AVM-BECs were isolated from brain tissues of patients who underwent microsurgical AVM resection. Control BECs were isolated from the structurally normal […] of patients who underwent temporal lobectomy for intractable epilepsy. Endothelial cell (EC) isolation and culture were described^5,9. (Stapleton C J, Armstrong D L, Zidovetzki R, Liu C Y, Giannotta S L, Hofman F M. Thrombospondin-1 modulates the angiogenic phenotype of human cerebral arteriovenous malformation endothelial cells. Neurosurgery. 2011; 68(5):1342-1353) (Ferreira R, Santos T, Amar A, et al. Argonaute-2 promotes miR-18a entry in human brain endothelial cells. J Am Heart Assoc. 2014; 3(3):e000968) ECs were only used between passages 3-5. Experiments were performed under shear flow conditions (12 dyn/cm^2) to reproduce arterial flow^6. (Ferreira R, Santos T, Amar A, et al. MicroRNA-18a improves human cerebral arteriovenous malformation endothelial cell function. Stroke. 2014; 45(1):293-297). For hypoxic experiments, cells were cultured in a Galaxy 48R (Eppendorf) incubator at 3% O2. MicroRNAs were co-administered with Ago-2 to increase the cellular uptake of miR-18a^9 (Ferreira R, Santos T, Amar A, et al. Argonaute-2 promotes miR-18a entry in human brain endothelial cells. J Am Heart Assoc. 2014; 3(3):e000968) (FIG. 9). Methods regarding cell treatments and transfections were included in Data.
MiR-18a (hsa-miR-18a-5p, 40 nM, Dharmacon) or a scramble microRNA (40 nM, Dharmacon) in nuclease-free water was added with argonaute 2 (Ago-2, 0.4 nM, Abcam) as the microRNA carrier and stabilizer^9. (Ferreira R, Santos T, Amar A, et al. Argonaute-2 promotes miR-18a entry in human brain endothelial cells. J Am Heart Assoc. 2014; 3(3):e000968). No transfection reagent was used with miR-18a or scramble microRNA treatments. Recombinant human TSP-1 (R&D Systems) stock solution was prepared in PBS and further diluted in culture medium to be used at a final concentration of 1000 ng/mL. Cells were treated during 24 h for mRNA and 48 h for protein expression studies. NEO100 (NeOnc Technologies) stock was prepared in DMSO and used immediately or stored at −20° C.
The levels of angiogenesis-related proteins were analyzed using the Proteome Profiler™ Human Angiogenesis Array kit (R&D Systems) following the manufacturer's instructions. The protocol for western blot was published^10. (Marín-Ramos N I, Alonso D, Ortega-Gutiérrez S, et al. New inhibitors of angiogenesis with antitumor activity in vivo. J Med Chem. 2015; 58(9):3757-3766). Information about antibodies used was included in Table 1. Membranes were visualized and quantified using a C-Digit Blot scanner (Li-Cor) or a iBright CL1000 (Thermo Fisher Scientific).

[1] = tested on: Mgp^−/− mouse model of AVM; experiment: In vivo computed tomography angiography (CTA) of brain vasculature
Method: In vivo ultra-high-resolution computed tomography angiography (CTA) was performed to study changes in neurovascular architecture like methods described previously. (Mukundan S, Jr., […], Badea C T, et al. A liposomal nanoscale contrast agent for preclinical CT in mice. AJR Am J Roentgenol. 2006; 186(2):300-307) ([…], Rendon D, et al. Ultra-High-Resolution In vivo Computed Tomography Imaging of Mouse Cerebrovasculature Using a Long Circulating Blood Pool Contrast Agent. Scientific reports. 2015; 5:10178). Briefly, mice were anesthetized using 3-4% isoflurane, positioned on a CT cradle and maintained at 1-1.5% isoflurane delivered via nose cone. Mice were intravenously injected a long circulating liposomal-iodine blood pool contrast agent (2.2 g/kg body weight) for CTA^8,9 and scanned on a small animal micro-CT scanner Rigaku CT Lab GX90-1-E. The following scan parameters were used: High Resolution Scan Mode, 70 kVp, 114 uA, 10 mm FOV, 1440 projections, 20 μm voxel size, 14 min scan time. All animal protocols were approved by the USC's Institutional Animal Care and Use Committee (IACUC) and strictly adhered to. MiR-18a was co-administered with Ago-2 (0.0008 nmol/mouse) to increase stability and cellular uptake^9 (Ferreira R, Santos T, Amar A, et al. Argonaute-2 promotes miR-18a entry in human brain endothelial cells. J Am Heart Assoc. 2014; 3(3):e000968). (FIG. 9). Details about randomization, blinding, group size and inclusion/exclusion criteria have been included in Methods. […] The vascular data was quantified using ImageJ. […] The pixels were analyzed as particles and normalized to results from the wildtype mice (WT, Mgp^+/+).

hsa-miR-18a-5p (UAGGUGCAUCUAGUGCAGAUAG; chemistry not given here; listed as Homo sapiens) [small non-coding RNA molecule involved in post-transcriptional regulation of gene expression; Dharmacon]
bFGF levels, decrease compared to scramble miR-treated AVM-BEC (AVM-BEC; shear flow 12 dyn/cm2, miR-18a 40 nM with Ago-2 0.4 nM, n=1): 2 fold | IGFBP-1 levels, upregulation compared to scramble miR-treated AVM-BEC (AVM-BEC; shear flow, miR-18a 40 nM with Ago-2, n=1): 2 fold | TSP-1 protein levels in AVM-BEC lysates (AVM-BEC; vs scramble miR, n=1): did not observe any relevant differences | downregulation of PAI-1 (AVM-BEC; vs scramble miR, n=1): 20% | upregulation of endothelin-1 (ET-1) (AVM-BEC; vs scramble miR, n=1): > 20% | upregulation of pentraxin 3 (PTX3) (AVM-BEC; vs scramble miR, n=1): > 20% | AzACA vessel density compared to healthy wildtype mice ([1]; 0.08 nmol/mouse IN daily for 2-weeks with Ago-2): 92-94% | brain vasculature and leakage (CTA) ([1]; Mgp^−/− mice, IN 2-weeks): normalized | calcifications found in carotids ([1]; Mgp^−/− mice, IN 2-weeks): no effect
